Assay [1] has as its target EGFR (human) (UniProt P00533). The note with it: a431.
Assay [2] deals with EGFR (human) (UniProt P00533).

Each structure is given as a SMILES string.

Usually IC50 stands for the concentration needed to halve the response being measured. Read a low IC50 as greater potency in that assay.

Chain of EGFR (human) (P00533 whole entry, looked up): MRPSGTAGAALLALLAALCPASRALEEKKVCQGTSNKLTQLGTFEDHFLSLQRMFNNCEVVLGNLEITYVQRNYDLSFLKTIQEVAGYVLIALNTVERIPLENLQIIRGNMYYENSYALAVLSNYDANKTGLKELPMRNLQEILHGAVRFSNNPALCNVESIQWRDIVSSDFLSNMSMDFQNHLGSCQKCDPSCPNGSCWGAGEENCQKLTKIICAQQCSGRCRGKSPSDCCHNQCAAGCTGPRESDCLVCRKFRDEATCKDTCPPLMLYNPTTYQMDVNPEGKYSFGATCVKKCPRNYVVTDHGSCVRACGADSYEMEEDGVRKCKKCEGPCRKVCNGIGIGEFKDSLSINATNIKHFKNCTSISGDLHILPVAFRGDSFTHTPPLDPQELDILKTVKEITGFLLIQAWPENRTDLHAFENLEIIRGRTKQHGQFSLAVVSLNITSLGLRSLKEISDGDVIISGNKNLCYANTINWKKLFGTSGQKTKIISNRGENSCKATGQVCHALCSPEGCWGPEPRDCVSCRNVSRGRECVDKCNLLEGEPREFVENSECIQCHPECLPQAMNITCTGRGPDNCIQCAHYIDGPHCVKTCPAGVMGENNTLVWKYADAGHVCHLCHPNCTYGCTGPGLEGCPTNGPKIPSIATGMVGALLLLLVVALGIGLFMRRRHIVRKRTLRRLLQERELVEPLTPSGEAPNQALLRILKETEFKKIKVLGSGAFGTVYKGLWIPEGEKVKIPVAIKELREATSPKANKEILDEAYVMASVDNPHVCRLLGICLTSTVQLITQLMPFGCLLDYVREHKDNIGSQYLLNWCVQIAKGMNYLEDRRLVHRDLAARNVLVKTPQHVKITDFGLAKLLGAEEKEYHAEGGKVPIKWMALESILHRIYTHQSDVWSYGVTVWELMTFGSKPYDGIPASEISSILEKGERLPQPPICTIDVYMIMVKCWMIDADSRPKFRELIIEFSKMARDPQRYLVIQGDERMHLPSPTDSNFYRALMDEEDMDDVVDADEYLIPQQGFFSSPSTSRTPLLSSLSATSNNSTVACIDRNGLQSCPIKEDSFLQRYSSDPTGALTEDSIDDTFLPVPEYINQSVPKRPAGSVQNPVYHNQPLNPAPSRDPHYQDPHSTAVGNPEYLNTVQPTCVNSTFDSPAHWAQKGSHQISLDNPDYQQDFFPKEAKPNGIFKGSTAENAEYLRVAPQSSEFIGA

Take `OC(CN1CCC(N2CCCC2)CC1)Cn1ccc(-c2ccc3ncnc(Nc4ccc(OCc5cccc(F)c5)c(Cl)c4)c3c2)c1` (centres undefined): the IC50 in assay [1] amounted to 362 nM; in assay [2], 39 nM.

For `Fc1cccc(COc2ccc(Nc3ncnc4ccc(-c5ccn(C[C@H]6COCCN6)c5)cc34)cc2Cl)c1`, the results for the IC50 in assay [1] and in assay [2] were 562 nM and 79 nM, respectively.

Turning to `OC(CN1CCN(Cc2ccncc2)CC1)Cn1ccc(-c2ccc3ncnc(Nc4ccc5c(cnn5Cc5cccc(F)c5)c4)c3c2)c1` (centres undefined), the IC50 in assay [1] is 4200 nM; in assay [2] it was 598 nM.

On to `Cn1cccc1-c1ccc2ncnc(Nc3ccc(OCc4cccc(F)c4)c(Cl)c3)c2c1`, for which the 50% inhibitory concentration (IC50) was found to be 136 nM in assay [1] and 6 nM in assay [2].

`N[C@H]1CCCN(C(=O)Cn2ccc(-c3ccc4ncnc(Nc5ccc(OCc6cccc(F)c6)c(Cl)c5)c4c3)c2)C1`: the figures for the IC50 in assay [1] and in assay [2] were 729 nM and 38 nM, respectively.

Regarding `CCN(CC)CCNC(=O)c1cn(-c2ccc3ncnc(Nc4ccc(OCc5ccccn5)c(Cl)c4)c3c2)cc1CCO`, the IC50 in assay [1] worked out at 8 nM; in assay [2], 25 nM.

For `CS(=O)(=O)CCNCc1ccn(-c2ccc3ncnc(Nc4ccc(OCc5cccc(F)c5)c(Cl)c4)c3c2)c1`, the IC50 came to 780 nM in assay [1] and 50 nM in assay [2].

(Values after the Kinase Knowledgebase extract (Sharma et al. 2016).)
